Assays:
Type in all cases: binding
[1] = tested on: human monoclonal antibody CRJB
[2] = tested on: human monoclonal antibody CR57
[3] = tested on: human monoclonal antibody CRJA
[4] = tested on: human monoclonal antibody CRJB; remark: listed apart in the source
[5] = tested on: human monoclonal antibody CR57; remark: listed apart in the source
[6] = tested on: human monoclonal antibody CRJA; remark: listed apart in the source

In the case of KGSETCGFVDERGLY, the “Binding of CRJB to linear peptide (PEPSCAN-ELISA signal)” value (“Binding of CRJB to linear peptide” for short) [1] was 97, the “Binding of CR57 to linear peptide (PEPSCAN-ELISA signal)” value (“Binding of CR57 to linear peptide” below) [2] was 90 and the “Binding of CRJA to linear peptide (PEPSCAN-ELISA signal)” value (shortened to “Binding of CRJA to linear peptide”) [3] was 100. The “Binding of CRJB (10 μg/ml) to looped/cyclic peptide (PEPSCAN-ELISA)” value [4] was 72, the “Binding of CR57 (10 μg/ml) to looped/cyclic peptide (PEPSCAN-ELISA)” value [5] was 111 and the “Binding of CRJA (10 μg/ml) to looped/cyclic peptide (PEPSCAN-ELISA)” value [6] was 71.

For KHFRPTPDACRAAYN, the “Binding of CRJB to linear peptide” value [1] was 112, the “Binding of CR57 to linear peptide” value [2] was 73 and the “Binding of CRJA to linear peptide” value [3] was 85. The “Binding of CRJB (10 μg/ml) to looped/cyclic peptide (PEPSCAN-ELISA signal)” value [4] was 72, the “Binding of CR57 (10 μg/ml) to looped/cyclic peptide (PEPSCAN-ELISA signal)” value [5] was 70 and the “Binding of CRJA (10 μg/ml) to looped/cyclic peptide (PEPSCAN-ELISA signal)” value [6] was 41.

With KLCGVLGLRLMDGTW the “Binding of CRJB to linear peptide” value [1] was 132, the “Binding of CR57 to linear peptide” value [2] was 3152 and the “binding of antibody CR57 to linear peptide (PEPSCAN OD)” value [2] was “bound”. The “strength of binding of CR57 (OD value compared with the other peptides / twice the average value)” value [2] was “most prominent”, the “Binding of CRJA to linear peptide” value [3] was 96 and the “Binding of CRJB (10 μg/ml) to looped/cyclic peptide (PEPSCAN-ELISA)” value [4] was 68. For the same sequence, the “Binding of CR57 (10 μg/ml) to looped/cyclic peptide (PEPSCAN-ELISA)” value [5] was 120 and the “Binding of CRJA (10 μg/ml) to looped/cyclic peptide (PEPSCAN-ELISA)” value [6] was 82.

In the case of KLGPWSPIDIHHLSC, the “Binding of CRJB to linear peptide” value [1] was 105, the “Binding of CR57 to linear peptide” value [2] was 72 and the “Binding of CRJA to linear peptide” value [3] was 72. The “Binding of CRJB (10 μg/ml) to looped/cyclic peptide (PEPSCAN-ELISA signal)” value [4] was 65, the “Binding of CR57 (10 μg/ml) to looped/cyclic peptide (PEPSCAN-ELISA signal)” value [5] was 97 and the “Binding of CRJA (10 μg/ml) to looped/cyclic peptide (PEPSCAN-ELISA signal)” value [6] was 85.

For KLKLCGVLGLRLMDG, the “Binding of CRJB to linear peptide” value [1] was 120, the “Binding of CR57 to linear peptide” value [2] was 273 and the “binding of antibody CR57 to linear peptide (PEPSCAN OD)” value [2] was “bound”. For the same sequence, the “Binding of CRJA to linear peptide” value [3] was 101, the “Binding of CRJB (10 μg/ml) to looped/cyclic peptide (PEPSCAN-ELISA)” value [4] was 63 and the “Binding of CR57 (10 μg/ml) to looped/cyclic peptide (PEPSCAN-ELISA)” value [5] was 13. For the same sequence, the “Binding of CRJA (10 μg/ml) to looped/cyclic peptide (PEPSCAN-ELISA)” value [6] was 79.

KLVPGFGKAYTIFNK was tested, and the “Binding of CRJB to linear peptide” value [1] was 114, the “Binding of CR57 to linear peptide” value [2] was 47 and the “Binding of CRJA to linear peptide” value [3] was 73. For the same sequence, the “Binding of CRJB (10 μg/ml) to looped/cyclic peptide (PEPSCAN-ELISA)” value [4] was 71, the “Binding of CR57 (10 μg/ml) to looped/cyclic peptide (PEPSCAN-ELISA)” value [5] was 54 and the “Binding of CRJA (10 μg/ml) to looped/cyclic peptide (PEPSCAN-ELISA)” value [6] was 71.

With KMAGDPRYEESLHNP the “Binding of CRJB to linear peptide” value [1] was 102, the “Binding of CR57 to linear peptide” value [2] was 62 and the “Binding of CRJA to linear peptide” value [3] was 48. The “Binding of CRJB (10 μg/ml) to looped/cyclic peptide (PEPSCAN-ELISA signal)” value [4] was 45, the “Binding of CR57 (10 μg/ml) to looped/cyclic peptide (PEPSCAN-ELISA signal)” value [5] was 49 and the “Binding of CRJA (10 μg/ml) to looped/cyclic peptide (PEPSCAN-ELISA signal)” value [6] was 38.

For KMNGFTCTGVVTEAE, the “Binding of CRJB to linear peptide” value [1] was 104, the “Binding of CR57 to linear peptide” value [2] was 76 and the “Binding of CRJA to linear peptide” value [3] was 90. For the same sequence, the “Binding of CRJB (10 μg/ml) to looped/cyclic peptide (PEPSCAN-ELISA signal)” value [4] was 71, the “Binding of CR57 (10 μg/ml) to looped/cyclic peptide (PEPSCAN-ELISA signal)” value [5] was 77 and the “Binding of CRJA (10 μg/ml) to looped/cyclic peptide (PEPSCAN-ELISA signal)” value [6] was 83.

With KRASKGSETCGFVDE the “Binding of CRJB to linear peptide” value [1] was 106, the “Binding of CR57 to linear peptide” value [2] was 92 and the “Binding of CRJA to linear peptide” value [3] was 97. The “Binding of CRJB (10 μg/ml) to looped/cyclic peptide (PEPSCAN-ELISA)” value [4] was 85, the “Binding of CR57 (10 μg/ml) to looped/cyclic peptide (PEPSCAN-ELISA)” value [5] was 120 and the “Binding of CRJA (10 μg/ml) to looped/cyclic peptide (PEPSCAN-ELISA)” value [6] was 101.

With KREECLDALESIMTT the “Binding of CRJB to linear peptide” value [1] was 113, the “Binding of CR57 to linear peptide” value [2] was 102 and the “Binding of CRJA to linear peptide” value [3] was 83. For the same sequence, the “Binding of CRJB (10 μg/ml) to looped/cyclic peptide (PEPSCAN-ELISA)” value [4] was 64, the “Binding of CR57 (10 μg/ml) to looped/cyclic peptide (PEPSCAN-ELISA)” value [5] was 137 and the “Binding of CRJA (10 μg/ml) to looped/cyclic peptide (PEPSCAN-ELISA)” value [6] was 100.

For KRKHFRPTPDACRAA, the “Binding of CRJB to linear peptide” value [1] was 93, the “Binding of CR57 to linear peptide” value [2] was 65 and the “Binding of CRJA to linear peptide” value [3] was 65. For the same sequence, the “Binding of CRJB (10 μg/ml) to looped/cyclic peptide (PEPSCAN-ELISA signal)” value [4] was 84, the “Binding of CR57 (10 μg/ml) to looped/cyclic peptide (PEPSCAN-ELISA signal)” value [5] was 94 and the “Binding of CRJA (10 μg/ml) to looped/cyclic peptide (PEPSCAN-ELISA signal)” value [6] was 85.

With KSLKGACKLKLCGVL the “Binding of CRJB to linear peptide” value [1] was 113, the “Binding of CR57 to linear peptide” value [2] was 129 and the “Binding of CRJA to linear peptide” value [3] was 91. For the same sequence, the “Binding of CRJB (10 μg/ml) to looped/cyclic peptide (PEPSCAN-ELISA)” value [4] was 97, the “Binding of CR57 (10 μg/ml) to looped/cyclic peptide (PEPSCAN-ELISA)” value [5] was 106 and the “Binding of CRJA (10 μg/ml) to looped/cyclic peptide (PEPSCAN-ELISA)” value [6] was 113.

KSVRTWNEILPSKGC was tested, and the “Binding of CRJB to linear peptide” value [1] was 125, the “Binding of CR57 to linear peptide” value [2] was 115 and the “Binding of CRJA to linear peptide” value [3] was 90. For the same sequence, the “Binding of CRJB (10 μg/ml) to looped/cyclic peptide (PEPSCAN-ELISA)” value [4] was 104, the “Binding of CR57 (10 μg/ml) to looped/cyclic peptide (PEPSCAN-ELISA)” value [5] was 148 and the “Binding of CRJA (10 μg/ml) to looped/cyclic peptide (PEPSCAN-ELISA)” value [6] was 110.

KSVSFRRLSHLRKLV was tested, and the “Binding of CRJB to linear peptide” value [1] was 124, the “Binding of CR57 to linear peptide” value [2] was 108 and the “Binding of CRJA to linear peptide” value [3] was 111. The “Binding of CRJB (10 μg/ml) to looped/cyclic peptide (PEPSCAN-ELISA)” value [4] was 97, the “Binding of CR57 (10 μg/ml) to looped/cyclic peptide (PEPSCAN-ELISA)” value [5] was 114 and the “Binding of CRJA (10 μg/ml) to looped/cyclic peptide (PEPSCAN-ELISA)” value [6] was 88.

KTLMEADAHYKSVRT was tested, and the “Binding of CRJB to linear peptide” value [1] was 98, the “Binding of CR57 to linear peptide” value [2] was 91 and the “Binding of CRJA to linear peptide” value [3] was 102. The “Binding of CRJB (10 μg/ml) to looped/cyclic peptide (PEPSCAN-ELISA)” value [4] was 97, the “Binding of CR57 (10 μg/ml) to looped/cyclic peptide (PEPSCAN-ELISA)” value [5] was 125 and the “Binding of CRJA (10 μg/ml) to looped/cyclic peptide (PEPSCAN-ELISA)” value [6] was 92.

With KTTKESLVIISPSVA the “Binding of CRJB to linear peptide” value [1] was 112, the “Binding of CR57 to linear peptide” value [2] was 101 and the “Binding of CRJA to linear peptide” value [3] was 82. For the same sequence, the “Binding of CRJB (10 μg/ml) to looped/cyclic peptide (PEPSCAN-ELISA signal)” value [4] was 75, the “Binding of CR57 (10 μg/ml) to looped/cyclic peptide (PEPSCAN-ELISA signal)” value [5] was 111 and the “Binding of CRJA (10 μg/ml) to looped/cyclic peptide (PEPSCAN-ELISA signal)” value [6] was 104.

In the case of KVGYILAIKMNGFTC, the “Binding of CRJB to linear peptide” value [1] was 118, the “Binding of CR57 to linear peptide” value [2] was 78 and the “Binding of CRJA to linear peptide” value [3] was 83. The “Binding of CRJB (10 μg/ml) to looped/cyclic peptide (PEPSCAN-ELISA signal)” value [4] was 64, the “Binding of CR57 (10 μg/ml) to looped/cyclic peptide (PEPSCAN-ELISA signal)” value [5] was 96 and the “Binding of CRJA (10 μg/ml) to looped/cyclic peptide (PEPSCAN-ELISA signal)” value [6] was 71.

In the case of KWCPPDQLVNLHDFR, the “Binding of CRJB to linear peptide” value [1] was 113, the “Binding of CR57 to linear peptide” value [2] was 89 and the “Binding of CRJA to linear peptide” value [3] was 97. For the same sequence, the “Binding of CRJB (10 μg/ml) to looped/cyclic peptide (PEPSCAN-ELISA)” value [4] was 100, the “Binding of CR57 (10 μg/ml) to looped/cyclic peptide (PEPSCAN-ELISA)” value [5] was 118 and the “Binding of CRJA (10 μg/ml) to looped/cyclic peptide (PEPSCAN-ELISA)” value [6] was 102.

With LADPSTVFKDGDEAE the “Binding of human monoclonal antibody CRJB to linear peptide (PEPSCAN-ELISA signal)” value [1] was 116, the “Binding of human monoclonal antibody CR57 to linear peptide (PEPSCAN-ELISA signal)” value [2] was 68 and the “Binding of human monoclonal antibody CRJA to linear peptide (PEPSCAN-ELISA signal)” value [3] was 86. The “Binding of CRJB to looped/cyclic peptide (PEPSCAN-ELISA signal)” value [4] was 90, the “Binding of CR57 to looped/cyclic peptide (PEPSCAN-ELISA signal)” value [5] was 134 and the “Binding of CRJA to looped/cyclic peptide (PEPSCAN-ELISA signal)” value [6] was 90.

For LAIKMNGFTCTGVVT, the “Binding of CRJB to linear peptide” value [1] was 130, the “Binding of CR57 to linear peptide” value [2] was 68 and the “Binding of CRJA to linear peptide” value [3] was 112. The “Binding of CRJB (10 μg/ml) to looped/cyclic peptide (PEPSCAN-ELISA signal)” value [4] was 91, the “Binding of CR57 (10 μg/ml) to looped/cyclic peptide (PEPSCAN-ELISA signal)” value [5] was 76 and the “Binding of CRJA (10 μg/ml) to looped/cyclic peptide (PEPSCAN-ELISA signal)” value [6] was 79.

In the case of LCGVLGLRLMDGTWV, the “Binding of CRJB to linear peptide” value [1] was 138, the “Binding of CR57 to linear peptide” value [2] was 83 and the “Binding of CRJA to linear peptide” value [3] was 111. For the same sequence, the “Binding of CRJB (10 μg/ml) to looped/cyclic peptide (PEPSCAN-ELISA)” value [4] was 104, the “Binding of CR57 (10 μg/ml) to looped/cyclic peptide (PEPSCAN-ELISA)” value [5] was 128 and the “Binding of CRJA (10 μg/ml) to looped/cyclic peptide (PEPSCAN-ELISA)” value [6] was 106.
